Laboratory results reported in patent US11006626B2, “Compounds for protection of cells” (Sulfateq B.V., priority 2012, dated 2021).

Assays:
Format in all cases: cell-based
blood platelets = assay: Cold storage of PRP blood platelets, aggregation of thrombocytes after storage; design: key: − means that most of the thrombocytes were aggregated; a + indicates that a few cells were still viable but some cells aggregated; a ++ indicates that almost all cells were viable; details: 30 mM; PRP platelets stored at 4° C.; 264 hours
Description: PRP platelets were harvested and 2.1 ml was suspended in Poly Propylene tubes of 5 ml, closed with a stop.
Several compounds according to the invention were added to the blood platelets directly after preparing the PRP plasma and incubated during 10 minutes at 37° C. or 30 minutes at room temperature. The blood platelets with the compound were then stored at 4° C.
A control was stored under shaking conditions at room temperature. Another control was stored at 4° C. without the addition of a compound.
(§1) A sample was taken out of each tube after 264 hours after addition of the compound and tested as follows: • The color and coagulation properties were visually analysed. • The thrombocyte cells that survived were counted and it was evaluated whether the thrombocytes were aggregated. • It was evaluated if the thrombocytes still were able to function after stimulation by the addition of ADP or under influence of collagen in a 96 well plate. • The adhesion was evaluated, meaning the ability of the platelets to bind collagen in a 6 well plate preincubated with collagen. • Via an ELISA assay, it was evaluated whether thromboxane was secreted from the platelets. Thromboxane facilitates aggregation and is produced by activated blood platelets.
Table 3 provides an overview of the results of the addition of the compounds to the blood platelets and evaluates the aggregation of the thrombocytes after addition of the compound according to the invention and cooling until 4° C.

apherese blood platelets = assay: Apheresis platelets stored with Sul 136, platelet aggregation (Platelet Aggregation Profiler PAP 8); details: for Platelet aggregation ADP (%) / Platelet aggregation Collagen (%): stored at 4° C. with Sul 136
Description: 300 μM suspension of Sul 136 is added with a procedure, which keeps the bag content sterile and the Sul 136 is kept in suspension by frequent whirling and stored at 37° C. before it is added to the freshly harvested platelets. The Sul 136 suspension is added to three platelet bags directly from the bag. After addition, the content of the platelet bag is gently mixed. After 2 hours the first sample is drawn with a seal-docked sample bag. The sample bag is disconnected by welding and from this sample bag the samples are taken for hematology analyzing, aggregometer tests and the flow-cytometry tests. Swirling in the bag is reported by experience of the laboratory worker in the standard format. Platelets without Sul 136 put on a flatbed shaker and stored at room temperature were used as control. Another control is stored at 4° C. Platelet samples in which Sul 136 is added, are stored without shaking in a refrigerator at 4° C.
Platelet aggregation was measured according to Platelet Aggregation Profiler PAP 8 (Mölab) using all reagents from Mölab.
3 ml platelet concentrate was centrifuged at 3000 RPM to get PPP. 1800 μl PPP and 600 μl PRP were mixed.
225 μl PRP was brought in test tube with magnetic stirrer. 225 μl PPP+25 μl aquadest was brought in test tube without magnetic stirrer. PPP was used for basis. PRP was put during 2 min at 37° C. on a roller. Measurement with PRP in aggregometer was started after 30 seconds with 25 μl inductor. Measurement was performed during 6 min.

PRP platelets = PRP platelets stored with Sul 136, aggregation after stimulation with collagen; design: key: +means that the cells show aggregation and can thus be activated upon stimulation; −means no aggregation upon stimulation
Description: as §1, with “A sample was taken out of each tube after 264 hours after addition of the compound and tested as follows:” left out
(+means that the cells show aggregation, ++means strong aggregation, these platelets can thus be activated upon stimulation, −means no aggregation upon stimulation)

Cc1c(C)c2c(c(C)c1O)CCC(C)(C(=O)N1CCN(CC(=O)O)CC1)O2 (racemic) [SUL - 136, 2-(4-(6-hydroxy-2,5,7,8-tetramethylchroman-2-carbonyl)piperazin-1-yl)acetic acid]
Aggregation of blood platelets after storage (blood platelets): +
Platelet aggregation ADP (%) (apherese blood platelets; Donor 2, Day 1): 0%
Platelet aggregation Collagen (%) (apherese blood platelets; Donor 2, Day 1): 0%
Platelet aggregation ADP (%) (apherese blood platelets; Donor 2, Day 2): 0%
Platelet aggregation Collagen (%) (apherese blood platelets; Donor 2, Day 2): 0%
Platelet aggregation ADP (%) (apherese blood platelets; Donor 2, Day 3): 0%
Platelet aggregation Collagen (%) (apherese blood platelets; Donor 2, Day 3): 4%
Platelet aggregation ADP (%) (apherese blood platelets; Donor 2, Day 5): 0%
Platelet aggregation Collagen (%) (apherese blood platelets; Donor 2, Day 5): 0%
Platelet aggregation ADP (%) (apherese blood platelets; Donor 2, Day 8): 0%
Platelet aggregation Collagen (%) (apherese blood platelets; Donor 2, Day 8): 0%
Platelet aggregation ADP (%) (apherese blood platelets; Donor 2, Day 10): 0%
Platelet aggregation Collagen (%) (apherese blood platelets; Donor 2, Day 10): 0%
Platelet aggregation ADP (%) (apherese blood platelets; Donor 2, Day 12): 0%
Platelet aggregation Collagen (%) (apherese blood platelets; Donor 2, Day 12): 5%
Platelet aggregation ADP (%) (apherese blood platelets; Donor 2, Day 19): 0%
Platelet aggregation Collagen (%) (apherese blood platelets; Donor 2, Day 19): 0%
Platelet aggregation ADP (%) (apherese blood platelets; Donor 3, Day 1): 0%
Platelet aggregation Collagen (%) (apherese blood platelets; Donor 3, Day 1): 0%
Platelet aggregation ADP (%) (apherese blood platelets; Donor 3, Day 2): 0%
Platelet aggregation Collagen (%) (apherese blood platelets; Donor 3, Day 2): 0%
Platelet aggregation ADP (%) (apherese blood platelets; Donor 3, Day 3): 0%
Platelet aggregation Collagen (%) (apherese blood platelets; Donor 3, Day 3): 0%
Platelet aggregation ADP (%) (apherese blood platelets; Donor 3, Day 5): 6%
Platelet aggregation Collagen (%) (apherese blood platelets; Donor 3, Day 5): 0%
Platelet aggregation ADP (%) (apherese blood platelets; Donor 3, Day 8): 0%
Platelet aggregation Collagen (%) (apherese blood platelets; Donor 3, Day 8): 0%
Platelet aggregation ADP (%) (apherese blood platelets; Donor 3, Day 10): 0%
Platelet aggregation Collagen (%) (apherese blood platelets; Donor 3, Day 10): 0%
Platelet aggregation ADP (%) (apherese blood platelets; Donor 3, Day 12): 0%
Platelet aggregation Collagen (%) (apherese blood platelets; Donor 3, Day 12): 8%
Platelet aggregation ADP (%) (apherese blood platelets; Donor 3, Day 19): 0%
Platelet aggregation Collagen (%) (apherese blood platelets; Donor 3, Day 19): 0%
platelet aggregation upon stimulation with collagen and ADP (apherese blood platelets; donor 1, day 12 and day 19, stored at 4° C.): restored
Platelet aggregation ADP (%) (apherese blood platelets; donor 1, Day 1): 0%
Platelet aggregation Collagen (%) (apherese blood platelets; donor 1, Day 1): 0%
Platelet aggregation ADP (%) (apherese blood platelets; donor 1, Day 2): 0%
Platelet aggregation Collagen (%) (apherese blood platelets; donor 1, Day 2): 0%
Platelet aggregation ADP (%) (apherese blood platelets; donor 1, Day 3): 0%
Platelet aggregation Collagen (%) (apherese blood platelets; donor 1, Day 3): 0%
Platelet aggregation ADP (%) (apherese blood platelets; donor 1, Day 5): 0%
Platelet aggregation Collagen (%) (apherese blood platelets; donor 1, Day 5): 0%
Platelet aggregation ADP (%) (apherese blood platelets; donor 1, Day 8): 0%
Platelet aggregation Collagen (%) (apherese blood platelets; donor 1, Day 8): 0%
Platelet aggregation ADP (%) (apherese blood platelets; donor 1, Day 10): 0%
Platelet aggregation Collagen (%) (apherese blood platelets; donor 1, Day 10): 0%
Platelet aggregation ADP (%) (apherese blood platelets; donor 1, Day 12): 12%
Platelet aggregation Collagen (%) (apherese blood platelets; donor 1, Day 12): 17%
Platelet aggregation ADP (%) (apherese blood platelets; donor 1, Day 19): 31%
Platelet aggregation Collagen (%) (apherese blood platelets; donor 1, Day 19): 32%
aggregation of the PRP platelets after stimulation with collagen (PRP platelets; 10 min 0.001 mM, 24 h): −
aggregation of the PRP platelets after stimulation with collagen (PRP platelets; 10 min 0.001 mM, 48 h): −
aggregation of the PRP platelets after stimulation with collagen (PRP platelets; 10 min 0.001 mM, 72 h): −
aggregation of the PRP platelets after stimulation with collagen (PRP platelets; 10 min 0.001 mM, 216 h): −
aggregation of the PRP platelets after stimulation with collagen (PRP platelets; 10 min 0.01 mM, 24 h): −
aggregation of the PRP platelets after stimulation with collagen (PRP platelets; 10 min 0.01 mM, 48 h): −
aggregation of the PRP platelets after stimulation with collagen (PRP platelets; 10 min 0.01 mM, 72 h): −
aggregation of the PRP platelets after stimulation with collagen (PRP platelets; 10 min 0.01 mM, 216 h): −
aggregation of the PRP platelets after stimulation with collagen (PRP platelets; 10 min 0.1 mM, 48 h): −
aggregation of the PRP platelets after stimulation with collagen (PRP platelets; 10 min 0.1 mM, 72 h): −
aggregation of the PRP platelets after stimulation with collagen (PRP platelets; 10 min 0.1 mM, 216 h): −
aggregation of the PRP platelets after stimulation with collagen (PRP platelets; 10 min 1 mM, 48 h): −
aggregation of the PRP platelets after stimulation with collagen (PRP platelets; 60 min 0.001 mM, 24 h): −
aggregation of the PRP platelets after stimulation with collagen (PRP platelets; 60 min 0.001 mM, 48 h): −
aggregation of the PRP platelets after stimulation with collagen (PRP platelets; 60 min 0.001 mM, 72 h): −
aggregation of the PRP platelets after stimulation with collagen (PRP platelets; 60 min 0.001 mM, 216 h): −
aggregation of the PRP platelets after stimulation with collagen (PRP platelets; 60 min 0.01 mM, 24 h): −
aggregation of the PRP platelets after stimulation with collagen (PRP platelets; 60 min 0.01 mM, 48 h): −
aggregation of the PRP platelets after stimulation with collagen (PRP platelets; 60 min 0.01 mM, 72 h): −
aggregation of the PRP platelets after stimulation with collagen (PRP platelets; 60 min 0.01 mM, 216 h): −
aggregation of the PRP platelets after stimulation with collagen (PRP platelets; 60 min 0.1 mM, 24 h): −
aggregation of the PRP platelets after stimulation with collagen (PRP platelets; 60 min 0.1 mM, 48 h): −
aggregation of the PRP platelets after stimulation with collagen (PRP platelets; 60 min 0.1 mM, 72 h): −
aggregation of the PRP platelets after stimulation with collagen (PRP platelets; 60 min 0.1 mM, 216 h): −
aggregation of the PRP platelets after stimulation with collagen (PRP platelets; 60 min 1 mM, 24 h): −
aggregation of the PRP platelets after stimulation with collagen (PRP platelets; 60 min 1 mM, 48 h): −
aggregation of the PRP platelets after stimulation with collagen (PRP platelets; 60 min 1 mM, 72 h): −
aggregation of the PRP platelets after stimulation with collagen (PRP platelets; 60 min 10 mM, 216 h): −
